Measured values published in patent US9604974B2, “Compounds as modulator of JAK-STAT pathway, methods and applications thereof” (UNIVERSITY OF MYSORE, priority 2015, dated 2017).
pIC50: −log10 of the molar value. “Also recorded” adds a separate entry of the source.

Key:
[1] = test system: phospho-STAT3 (Y705); experiment: Western blot of constitutive phospho-STAT3 (Y705) in HepG2; assay type: cell-based, human
Method: FIG. 2 depicts the suppression of phospho-STAT3 by compound 1 (CIMO) in a dose dependent manner [A]. HepG2 cells (5×10^5/mL) are treated with the indicated concentrations of CIMO for 6 hours, after which whole-cell extracts are prepared and resolved on SDS-PAGE gel, electrotransferred onto nitrocellulose membrane, and probed for phospho-STAT3. The same blot is stripped and reprobed with STAT3 antibody to verify equal protein loading. […] HepG2 cells (5×10^5/mL) are treated with the indicated concentrations of AG490 for about 6 hours, after which Western Blotting is done as described for [A]. [C] depicts the suppression of phospho-STAT3 levels by Compound 1 (CIMO) in a time-dependent manner. HepG2 cells (5×10^5/mL) are treated with 10 μMol/L CIMO for the indicated times, after which Western blotting is done as described for [A]. [D] depicts that compound 1 (CIMO) has no effect on phospho-STAT3 (Ser-727) and STAT3 protein expression. HepG2 cells (5×10^5/mL) are treated with 10 μMol/L CIMO for the indicated times, after which Western Blotting is done as described for [A] and membrane is probed using antibodies against phospho-STAT3 (Ser-727) and STAT3. […] HepG2 cells (1×10^5/mL) are incubated with or without 10 μMol/L CIMO for about 6 hours and then analyzed for the intracellular distribution of STAT3 by immunocytochemistry. The same slides are counterstained for nuclei with Hoechst (50 ng/mL) for about 5 minutes and analyzed under an fluorescencemicroscope. […] HepG2 cells (5×10^5/mL) are treated with 10 μMol/L CIMO, after which whole-cell extracts are prepared, resolved in SDS-PAGE, electrotransferred onto nitrocellulose membrane, and probed with phospho-Src, phospho-JAK1 and phospho-JAK2 antibodies. The same blots are stripped and reprobed with Src, JAK1 and JAK2 antibodies to verify equal protein loading. [G] depicts the suppression of STAT3 DNA binding ability by Compound 1 (CIMO) in HepG2 cells. HepG2 cells are treated with 10 μMol/L CIMO for the indicated time, nuclear extracts are prepared, and 5 μg of the nuclear extract protein is used for ELISA-based DNA-binding assay.
CIMO is tested towards the inhibition of constitutive activation of STAT3 in HepG2 cells by Western Blotting via antibodies recognising phospho-STAT3 (Y705). For detection of phospho-proteins, CIMO treated whole-cell extracts are lysed in lysis buffer [20 mM Tris (pH 7.4), 250 mM NaCl, 2 mM Ethylenediaminetetraacetic acid (pH 8.0), 0.1% Triton-X-100, 0.01 mg/ml aprotinin, 0.005 mg/ml leupeptin, 0.4 mM phenylmethanesulfonylfluoride, and 4 mM NaVO4). Lysates are then spun at 14,000 rpm for about 10 minutes to remove insoluble material and resolved on SDS gel. After electrophoresis, the proteins are electrotransferred to a nitrocellulose membrane, blocked with 5% non-fat milk, and probed with various antibodies (1:1000) overnight at about 4° C. The blot is washed, exposed to HRP-conjugated secondary antibodies for about 1 hour, and finally examined by chemiluminescence (ECL; GE Healthcare, Little Chalfont, Buckinghamshire, UK).

[2] = test system: JAK2; experiment: Western blot of constitutive phospho-JAK2 in HepG2; assay type: cell-based, human; details: HepG2, 10 μMol/L CIMO
Method: FIG. 2 depicts the suppression of phospho-STAT3 by compound 1 (CIMO) in a dose dependent manner [A]. HepG2 cells (5×10^5/mL) are treated with the indicated concentrations of CIMO for 6 hours, after which whole-cell extracts are prepared and resolved on SDS-PAGE gel, electrotransferred onto nitrocellulose membrane, and probed for phospho-STAT3. The same blot is stripped and reprobed with STAT3 antibody to verify equal protein loading. […] HepG2 cells (5×10^5/mL) are treated with the indicated concentrations of AG490 for about 6 hours, after which Western Blotting is done as described for [A]. [C] depicts the suppression of phospho-STAT3 levels by Compound 1 (CIMO) in a time-dependent manner. HepG2 cells (5×10^5/mL) are treated with 10 μMol/L CIMO for the indicated times, after which Western blotting is done as described for [A]. [D] depicts that compound 1 (CIMO) has no effect on phospho-STAT3 (Ser-727) and STAT3 protein expression. […] HepG2 cells (1×10^5/mL) are incubated with or without 10 μMol/L CIMO for about 6 hours and then analyzed for the intracellular distribution of STAT3 by immunocytochemistry. The same slides are counterstained for nuclei with Hoechst (50 ng/mL) for about 5 minutes and analyzed under an fluorescencemicroscope. […]

[3] = test system: MDA MB231 (breast cancer cell line); experiment: MTT anti-proliferative assay, MDA MB231; assay type: cell-based; details: Homo sapiens, MDA-MB-231
Method: The anti-proliferative activity of Formula I compounds are studied on HepG2 cells using MTT assay. Briefly, the cells (2.5×10^4/ml) are incubated in triplicate in a 96-well plate in the presence or absence of different concentrations of compounds in a final volume of 0.2 ml up to 72 hours at 37° C. Thereafter, 20 μl MTT solution (5 mg/ml in PBS) is added to each well. After 2 hours of incubation at 37° C., 0.1 ml lysis buffer (20% SDS, 50% dimethyl-formamide) is added; incubation is continued overnight at 37° C.; and the optical density (OD) at 570 nm is measured by Tecan plate reader.
Additionally, Compound 1 is tested on a panel of six cell lines including Hep3B, PLC/PRF5, AGS (gastric cancer cell line), DU145 (prostrate cancer cell line), MDA MB231 (breast cancer cell line) and CAL27 (head and neck cancer cell line) cells.

SMILES: COc1ccc(C2CNC(c3cn(Cc4ccc(-c5ccccc5C#N)cc4)c4ccccc34)OC23CCCCC3)cc1 (stereo not drawn) [Compound 1]
- time of maximum inhibition of phospho-STAT3 ([1]; HepG2): 6 h
- phospho-STAT3 levels versus DMSO control ([1]; HepG2, 4 μM CIMO): decreased phospho-STAT3 levels
- protein levels of total STAT3 versus DMSO control ([1]; HepG2, 4 μM CIMO): not significantly altered
- concentration of maximum inhibition of phospho-STAT3 ([1]; HepG2, 6 hours): 20 µM
- concentration for comparable phospho-STAT3 effect versus AG490 ([1]; HepG2, CIMO compared to AG490): ten-fold lower concentration
- levels of phospho-STAT3 (Y705) ([1]; HepG2, Western blot, dose and time course, listed as CIMO): substantially downregulated in a dose- and time-dependent manner; also recorded: completely inhibits
- STAT3 protein expression ([1]; HepG2, same blots reprobed): remains unchanged
- phosphorylation of JAK2 [2]: significant inhibition
- pIC50 [3]: 4.61
